Here are results for three compounds from ChEMBL document CHEMBL6103539, “A critical analysis of design, binding pattern and SAR of benzo-fused heteronuclear compounds as VEGFR-2 inhibitors” (Bioorg Med Chem, 2024).

One series relates to DU-145. Nature of the series: Antiproliferative activity against human DU-145 cells. In kind it is functional, cell-based.
Series [1] has as its system MCF7. Nature of the series: Antiproliferative activity against human MCF7 cells. The class given is functional, cell-based.
Series [2] deals with MCF7. Nature of the series: cells. The settings on record: Homo sapiens, MCF7, 72 h.
Description: Cytotoxicity against human MCF7 cells assessed as reduction in cell viability incubated for 72 hrs by MTT assay
A further series relates to HCT-116. Nature of the series: cells. The settings on record: Homo sapiens, HCT-116, 72 h.
For a further series, the system named is HepG2. In words: cells. The following applies: Homo sapiens, HepG2, 72 h.
The target of series [3] is T1, Vascular endothelial growth factor receptor 2 (Homo sapiens, UniProt P35968). Nature of the series: Inhibition of VEGFR2 (unknown origin) using poly (Glu,Tyr) 4:1 as substrate measured after 1 hr in presence of ATP by ELISA method.
The next series has as its system NCI-H1975. In words: Antiproliferative activity against human NCI-H1975 cells assessed as reduction in cell growth incubated for 48 hrs by MTT assay. The class given is toxicity, cell-based. The following applies: NCI-H1975, 48 h. For orientation: Tetrazolium dyes change colour on reduction, which living cells bring about.
A further series relates to A549. In words: Antiproliferative activity against human A549 cells assessed as reduction in cell growth incubated for 48 hrs by MTT assay. In kind it is toxicity, cell-based. The settings on record: A549, 48 h.
The subject of a further series is HeLa. In words: Antiproliferative activity against human HeLa cells assessed as reduction in cell growth incubated for 48 hrs by MTT assay. In kind it is toxicity, cell-based.
A short description of series [4]: Antiproliferative activity against human HUVEC cells assessed as reduction in cell growth incubated for 48 hrs by MTT assay. The class given is toxicity, cell-based.
Series [5] concerns the target T1, Vascular endothelial growth factor receptor 2. In words: Inhibition of VEGFR-2 (unknown origin) at 1 uM using Poly(4:1 Glu, Tyr) as substrate by Kinase-Glo Max reagent based luminescence analysis relative to control. (Kinase-Glo measures the ATP left after a reaction by luminescence.)

T1 sequence (P35968 whole entry): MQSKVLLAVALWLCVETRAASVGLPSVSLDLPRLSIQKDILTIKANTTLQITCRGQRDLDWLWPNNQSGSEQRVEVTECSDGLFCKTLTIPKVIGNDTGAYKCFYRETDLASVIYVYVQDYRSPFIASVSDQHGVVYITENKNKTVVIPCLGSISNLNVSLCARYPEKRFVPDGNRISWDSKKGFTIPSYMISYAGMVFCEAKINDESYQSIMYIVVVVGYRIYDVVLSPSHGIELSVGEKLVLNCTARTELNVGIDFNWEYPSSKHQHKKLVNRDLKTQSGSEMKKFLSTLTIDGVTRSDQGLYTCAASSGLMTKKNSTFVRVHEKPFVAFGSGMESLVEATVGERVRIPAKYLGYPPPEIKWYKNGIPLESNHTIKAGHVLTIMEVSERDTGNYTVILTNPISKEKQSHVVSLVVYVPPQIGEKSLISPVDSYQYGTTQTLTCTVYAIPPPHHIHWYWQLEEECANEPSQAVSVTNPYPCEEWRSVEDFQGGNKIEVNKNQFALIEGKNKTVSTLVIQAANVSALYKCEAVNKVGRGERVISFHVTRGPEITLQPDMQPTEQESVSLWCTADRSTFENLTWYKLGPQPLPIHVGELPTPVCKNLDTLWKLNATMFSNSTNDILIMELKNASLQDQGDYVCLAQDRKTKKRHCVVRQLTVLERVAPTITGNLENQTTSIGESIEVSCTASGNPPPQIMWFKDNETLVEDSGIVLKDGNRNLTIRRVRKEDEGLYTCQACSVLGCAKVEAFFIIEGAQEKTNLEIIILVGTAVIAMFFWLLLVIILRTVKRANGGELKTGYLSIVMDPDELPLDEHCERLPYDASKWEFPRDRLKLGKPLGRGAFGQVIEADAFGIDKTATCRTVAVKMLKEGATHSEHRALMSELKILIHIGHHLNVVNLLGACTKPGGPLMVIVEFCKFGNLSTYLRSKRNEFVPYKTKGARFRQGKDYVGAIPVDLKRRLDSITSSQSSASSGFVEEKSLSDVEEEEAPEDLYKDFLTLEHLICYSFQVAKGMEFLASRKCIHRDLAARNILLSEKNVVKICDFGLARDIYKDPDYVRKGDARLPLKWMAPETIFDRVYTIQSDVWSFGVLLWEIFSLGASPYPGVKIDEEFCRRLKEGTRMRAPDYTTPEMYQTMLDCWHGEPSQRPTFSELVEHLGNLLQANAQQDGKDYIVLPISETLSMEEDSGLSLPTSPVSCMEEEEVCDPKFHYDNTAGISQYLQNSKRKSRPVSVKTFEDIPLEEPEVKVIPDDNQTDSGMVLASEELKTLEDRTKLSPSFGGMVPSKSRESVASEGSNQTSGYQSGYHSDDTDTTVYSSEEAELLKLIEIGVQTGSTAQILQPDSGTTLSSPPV
Description for HCT-116: Cytotoxicity against human HCT-116 cells assessed as reduction in cell viability incubated for 72 hrs by MTT assay
Description for HepG2: Cytotoxicity against human HepG2 cells assessed as reduction in cell viability incubated for 72 hrs by MTT assay

Consider `COc1nc(C(=O)Nc2nc3cc(F)ccc3[nH]2)ccc1-n1cnc(C)c1`, for which the IC50 in the series with DU-145 stood at 9.2 µM; in the series on MCF7 [1], 8.9 µM.

For `O=C(CCSc1nc2ccccc2o1)Nc1ccc(S(=O)(=O)NC(=O)NC2CCCCC2)cc1`, the half-inhibitory concentration (IC50) with MCF7 [2] stood at 8.93 µM; in the series with HCT-116, 7.14 µM; in the series on HepG2 it was 5.93 µM; in [3], 0.08 µM.

As for `O=C(Nc1ccc(OC(F)(F)F)cc1)Nc1ccc2oc(-c3ccccc3Cl)nc2c1`, the results for the concentration for half-maximal inhibition (IC50) in the series with NCI-H1975, in the series with A549 and in the series on HeLa were 1.4 µM, 7.61 µM and 0.28 µM, respectively. Besides, the IC50 at 48 h in [4] turned out to be 8.46 µM. This compound registered an inhibition in series [5] of 98.6%.

What is called IC50 is the concentration that gives 50% inhibition. A word on the inhibition: it is the share of the control response that was lost under treatment. The low end stands for little suppression, the high end for strong suppression.
